Experimental data published in PubChem BioAssay AID248 (DTP/NCI, 2004).
Inconclusive results and toxic doses are left out.

Test system: L1210 leukemia ip in BDF1 mice, survival T/C
Test: NCI In Vivo Anticancer Drug Screen. Data for tumor model L1210 Leukemia (intraperitoneal) in B6D2F1 (BDF1) mice
Details: endpoint: mean survival time, schedule: Q01DX009 (ip), vehicle: Klucel (hydroxypropylcellulose) (HPC), higher = longer survival
Procedure, shortened: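 Transplanted-tumor mice were given test agent; controls received vehicle only. Survival readings from the two groups were divided (treated over control).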

N#Cc1c(=O)[nH]c2ccccc2[n+]1[O-]
T/C (dose: 50.0 mg/kg/injection): 107 % of control
T/C (dose: 100.0 mg/kg/injection): 104 % of control
